{
  "source": "patent US8933230B2",
  "about": "“Phosphorus-containing group-substituted quinoline, its preparation process, medical composition containing the compounds and application” (priority 2011, dated 2015)",
  "key": {"[1]": {"molecular_target": "T1, PFCDPK1 (P. falciparum) (Plasmodium falciparum, UniProt P62344)", "T1 construct": "purchased DiscoveRx Corporation (KinomeScan)", "assay": "KinomeScan kinase panel", "type": "binding"}, "[2]": {"molecular_target": "T2, PDGFR-β (Mus musculus, UniProt P05622)", "T2 construct": "cell line NIH3T3 having endogenous high expression wild type PDGFR-β; endogenous in cells; host or cells: NIH3T3", "T2 sequence (P05622 32-1098)": "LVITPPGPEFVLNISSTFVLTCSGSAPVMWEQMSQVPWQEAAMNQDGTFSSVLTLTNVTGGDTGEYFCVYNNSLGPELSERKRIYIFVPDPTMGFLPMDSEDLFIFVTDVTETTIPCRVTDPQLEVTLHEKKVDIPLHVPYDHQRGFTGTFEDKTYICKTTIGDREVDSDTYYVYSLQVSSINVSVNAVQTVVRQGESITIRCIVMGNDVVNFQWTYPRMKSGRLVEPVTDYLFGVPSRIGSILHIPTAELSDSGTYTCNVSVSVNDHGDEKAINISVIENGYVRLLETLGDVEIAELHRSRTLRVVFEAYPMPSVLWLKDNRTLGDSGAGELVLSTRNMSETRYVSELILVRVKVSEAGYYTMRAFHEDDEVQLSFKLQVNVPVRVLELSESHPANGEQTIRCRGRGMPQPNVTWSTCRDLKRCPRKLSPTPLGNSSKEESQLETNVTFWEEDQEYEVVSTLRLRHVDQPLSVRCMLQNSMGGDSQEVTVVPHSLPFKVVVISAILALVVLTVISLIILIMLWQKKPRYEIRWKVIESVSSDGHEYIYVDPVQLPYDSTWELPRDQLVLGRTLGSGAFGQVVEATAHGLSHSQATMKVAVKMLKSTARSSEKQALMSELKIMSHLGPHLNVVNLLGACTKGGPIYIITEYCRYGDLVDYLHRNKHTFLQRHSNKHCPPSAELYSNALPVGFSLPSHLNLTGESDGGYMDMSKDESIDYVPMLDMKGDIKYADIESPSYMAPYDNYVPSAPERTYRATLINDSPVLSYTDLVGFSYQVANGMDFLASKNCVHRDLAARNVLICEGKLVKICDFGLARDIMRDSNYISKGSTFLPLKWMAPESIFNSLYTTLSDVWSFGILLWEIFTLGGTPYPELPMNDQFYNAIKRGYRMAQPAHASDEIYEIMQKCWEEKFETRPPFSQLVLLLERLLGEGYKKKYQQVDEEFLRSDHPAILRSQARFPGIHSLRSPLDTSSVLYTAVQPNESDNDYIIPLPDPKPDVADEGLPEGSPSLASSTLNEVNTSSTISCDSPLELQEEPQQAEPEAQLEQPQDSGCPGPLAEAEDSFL", "assay": "PDGFR-β kinase phosphorylation in NIH3T3 cells (sandwich ELISA)", "type": "cell-based", "conditions": "PDGF-BB 100 ng/mL 3 min, mean value of two testing results, read-out: IC50 values in the cell, PDGFR-β", "procedure": "(§1) Inhibitory activity on the kinases in tumor cells: In this example, the compound prepared in Example 10, N1-[4-[[7-[[1-(diethoxyphosphorylmethyl)-4-piperidinyl]methoxyl]-6-methoxyl-4-quinolyl]oxyl]-3-fluorophenyl]-N1′-(4-fluorophenyl)cyclopropane-1,1-dicarboxamide is tested in tumor cells by ProQinase GmbH corporation (Breisacher Str. 117, D-79106 Freiburg, Germany. www.proqinase.com) for the inhibitory activity on the following kinases: c-KIT, c-MET, VEGFR2 and PDGFR-β. The test includes the following steps:\n(§2) Firstly, the compound according to present invention is dissolved in dimethyl sulfoxide (DMSO) to prepare a 10 mM stock solution, which is diluted serially according to the concentration range shown in Table 6:\nPDGFR-β kinase: in the test experiment of PDGFR-beta kinase phosphorylation in the cells, mouse embryo fibroblast cell line NIH3T3 having endogenous high expression wild type PDGFR-β (wild-type PDGFR-β) is used. When these cells are simulated with mouse platelet-derived growth factor BB (PDGF-BB), it causes the tyrosine of PDGFR-beta receptor kinases self-phosphorylated. NIH3T3 cells are inoculated in DMEM culture solution containing 10% FCS in a multi-well cell culture dish. The compound of the invention is added to the cells after serum overnight starvation, then the cells are cultured in a medium without serum. […]"}, "[3]": {"molecular_target": "T3, PFPK5 (P. falciparum) (Plasmodium falciparum, UniProt P61075)", "T3 construct": "purchased DiscoveRx Corporation (KinomeScan)", "assay": "KinomeScan kinase panel", "type": "binding"}, "[4]": {"molecular_target": "T4, MAP4K4 (Homo sapiens, UniProt O95819)", "T4 construct": "purchased DiscoveRx Corporation (KinomeScan)", "assay": "KinomeScan kinase panel", "type": "binding", "procedure": "(§3) In this example, the compound prepared in Example 10, N1-[4-[[7-[[1-(diethoxyphosphorylmethyl)-4-piperidinyl]methoxyl]-6-methoxyl-4-quinolyl]oxyl]-3-fluorophenyl]-N1′-(4-fluorophenyl)cyclopropane-1,1-dicarboxamide is tested for the inhibitory effect in the 442-kinase panel of KinomeScan™ (www.kinomescan.com) from DiscoveRx Corporation (4215 Sorrento Valley Blvd, San Diego, Calif. 92121) at 1000 nM of the compound concentration, the results are shown in the following Table 5:\n(§4) For the detailed information of the screening technique, see Fabian, M. A. et al, Nat., Biotechnol. 2005, 23, 329 and Karaman, M. W. et al, Nat., Biotechnol. 2008, 26, 127. It can be seen from the following representative results that, the compound according to the present invention has significant inhibitory effect on kinases including c-Met, KDR or VEGFR2, RET, PDGFR-β, c-KIT, Flt3, MEK5, DDR1, LOK, CSF1R, EPHA7, EPHA8, EPHB6, MKNK2, BLK, HIPK4, HCK, Flt4 and the mutants thereof"}, "[5]": {"molecular_target": "T5, FLT3(D835H) (Homo sapiens, UniProt P36888, D835H)", "T5 construct": "purchased DiscoveRx Corporation (KinomeScan)", "assay": "KinomeScan kinase panel", "type": "binding", "procedure": "as §3, §4"}, "[6]": {"molecular_target": "T6, SRPK2 (Homo sapiens, UniProt P78362)", "T6 construct": "purchased DiscoveRx Corporation (KinomeScan)", "assay": "KinomeScan kinase panel", "type": "binding", "procedure": "as §3, §4"}, "[7]": {"molecular_target": "T7, CSK (Homo sapiens, UniProt P41240)", "T7 construct": "purchased DiscoveRx Corporation (KinomeScan)", "assay": "KinomeScan kinase panel", "type": "binding", "procedure": "as §3, §4"}, "[8]": {"molecular_target": "T8, CHEK2 (Homo sapiens, UniProt O96017)", "T8 construct": "purchased DiscoveRx Corporation (KinomeScan)", "assay": "KinomeScan kinase panel", "type": "binding", "procedure": "as §3, §4"}, "[9]": {"molecular_target": "T9, ABL1(H396P)-nonphosphorylated (Homo sapiens, UniProt P00519, H396P)", "T9 construct": "purchased DiscoveRx Corporation (KinomeScan)", "assay": "KinomeScan kinase panel", "type": "binding", "procedure": "as §3, §4"}, "[10]": {"molecular_target": "T10, MAP3K15 (Homo sapiens, UniProt Q6ZN16)", "T10 construct": "purchased DiscoveRx Corporation (KinomeScan)", "T10 sequence (Q6ZN16 whole entry)": "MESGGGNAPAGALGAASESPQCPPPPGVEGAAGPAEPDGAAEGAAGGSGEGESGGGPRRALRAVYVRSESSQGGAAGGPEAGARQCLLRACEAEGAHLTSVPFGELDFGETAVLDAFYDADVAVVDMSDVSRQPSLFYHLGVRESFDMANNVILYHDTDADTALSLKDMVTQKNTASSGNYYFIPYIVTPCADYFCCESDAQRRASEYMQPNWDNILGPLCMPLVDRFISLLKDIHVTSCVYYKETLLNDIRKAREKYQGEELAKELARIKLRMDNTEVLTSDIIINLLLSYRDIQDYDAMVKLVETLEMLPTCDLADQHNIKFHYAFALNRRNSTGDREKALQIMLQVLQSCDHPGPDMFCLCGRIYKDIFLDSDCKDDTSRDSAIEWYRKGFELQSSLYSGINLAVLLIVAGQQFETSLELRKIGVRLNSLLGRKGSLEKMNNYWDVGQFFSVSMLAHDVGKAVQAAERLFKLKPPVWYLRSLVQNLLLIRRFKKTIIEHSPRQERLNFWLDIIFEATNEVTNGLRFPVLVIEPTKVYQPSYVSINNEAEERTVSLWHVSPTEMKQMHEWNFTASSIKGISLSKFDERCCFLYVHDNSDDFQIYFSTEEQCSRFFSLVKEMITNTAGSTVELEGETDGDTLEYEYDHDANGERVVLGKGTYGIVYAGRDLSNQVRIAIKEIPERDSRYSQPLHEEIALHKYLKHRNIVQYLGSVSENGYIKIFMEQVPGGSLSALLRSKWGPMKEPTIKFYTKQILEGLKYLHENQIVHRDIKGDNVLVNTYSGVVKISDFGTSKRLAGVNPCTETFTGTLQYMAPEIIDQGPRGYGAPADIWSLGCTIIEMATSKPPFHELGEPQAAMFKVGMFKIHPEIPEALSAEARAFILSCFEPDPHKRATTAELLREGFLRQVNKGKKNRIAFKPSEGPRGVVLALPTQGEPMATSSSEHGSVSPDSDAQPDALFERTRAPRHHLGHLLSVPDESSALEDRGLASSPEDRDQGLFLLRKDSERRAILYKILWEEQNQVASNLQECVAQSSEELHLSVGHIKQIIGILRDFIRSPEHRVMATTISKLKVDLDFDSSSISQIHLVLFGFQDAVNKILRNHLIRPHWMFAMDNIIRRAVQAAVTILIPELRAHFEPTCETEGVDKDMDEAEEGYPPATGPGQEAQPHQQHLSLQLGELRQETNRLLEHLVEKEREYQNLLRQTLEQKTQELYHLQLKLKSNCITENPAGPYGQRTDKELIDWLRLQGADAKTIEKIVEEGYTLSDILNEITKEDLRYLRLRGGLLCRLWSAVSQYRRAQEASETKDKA", "assay": "KinomeScan kinase panel", "type": "binding", "procedure": "as §3, §4"}, "[11]": {"molecular_target": "T11, LOK (Homo sapiens, UniProt O94804)", "T11 construct": "purchased DiscoveRx Corporation (KinomeScan)", "T11 sequence (O94804 whole entry)": "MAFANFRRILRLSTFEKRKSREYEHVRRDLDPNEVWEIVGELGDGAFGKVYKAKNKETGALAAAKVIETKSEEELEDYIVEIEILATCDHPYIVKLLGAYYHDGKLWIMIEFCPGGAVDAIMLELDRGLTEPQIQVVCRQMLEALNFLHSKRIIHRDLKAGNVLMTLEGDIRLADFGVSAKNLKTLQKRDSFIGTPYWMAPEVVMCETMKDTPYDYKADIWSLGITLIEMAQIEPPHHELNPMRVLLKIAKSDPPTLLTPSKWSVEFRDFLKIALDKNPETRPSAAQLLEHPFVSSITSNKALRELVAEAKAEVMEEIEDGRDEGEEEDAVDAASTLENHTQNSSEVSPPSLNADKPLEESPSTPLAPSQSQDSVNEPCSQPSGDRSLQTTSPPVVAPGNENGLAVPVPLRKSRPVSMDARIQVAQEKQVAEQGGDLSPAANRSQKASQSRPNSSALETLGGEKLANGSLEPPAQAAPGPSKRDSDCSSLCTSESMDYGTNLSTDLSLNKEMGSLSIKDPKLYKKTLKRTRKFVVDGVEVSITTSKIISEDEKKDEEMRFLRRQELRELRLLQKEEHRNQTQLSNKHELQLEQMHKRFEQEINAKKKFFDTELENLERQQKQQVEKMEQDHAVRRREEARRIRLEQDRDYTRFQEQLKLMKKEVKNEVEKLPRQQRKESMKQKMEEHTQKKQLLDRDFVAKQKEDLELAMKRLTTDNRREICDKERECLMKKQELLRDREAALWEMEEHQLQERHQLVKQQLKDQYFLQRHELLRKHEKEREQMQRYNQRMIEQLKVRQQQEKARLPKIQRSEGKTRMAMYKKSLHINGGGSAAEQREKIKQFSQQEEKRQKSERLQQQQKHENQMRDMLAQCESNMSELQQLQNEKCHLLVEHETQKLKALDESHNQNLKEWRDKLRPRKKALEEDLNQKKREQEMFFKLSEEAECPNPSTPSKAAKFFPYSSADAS", "assay": "KinomeScan kinase panel", "type": "binding", "procedure": "as §3, §4"}, "[12]": {"molecular_target": "T12, PIM2 (Homo sapiens, UniProt Q9P1W9)", "T12 construct": "purchased DiscoveRx Corporation (KinomeScan)", "T12 sequence (Q9P1W9 whole entry)": "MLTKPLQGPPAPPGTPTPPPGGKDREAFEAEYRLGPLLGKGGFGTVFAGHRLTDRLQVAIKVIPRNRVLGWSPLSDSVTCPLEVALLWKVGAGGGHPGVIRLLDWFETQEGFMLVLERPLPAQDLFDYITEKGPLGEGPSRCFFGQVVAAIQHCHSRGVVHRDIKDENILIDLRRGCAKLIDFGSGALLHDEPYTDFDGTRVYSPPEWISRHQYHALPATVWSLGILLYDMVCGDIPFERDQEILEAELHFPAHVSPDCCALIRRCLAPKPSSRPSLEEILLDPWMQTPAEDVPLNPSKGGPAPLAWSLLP", "assay": "KinomeScan kinase panel", "type": "binding", "procedure": "as §3, §4"}, "[13]": {"molecular_target": "T13, c-MET (Homo sapiens, UniProt P08581)", "T13 construct": "cell line MKN45 having endogenous high expression wild type c-MET; endogenous in cells; host or cells: MKN45", "assay": "c-MET kinase phosphorylation in MKN45 cells (sandwich ELISA)", "type": "cell-based", "conditions": "without stimulation, mean value of two testing results, read-out: IC50 values in the cell, c-MET", "procedure": "as §1, §2\nc-MET kinase: in the test experiment of c-MET kinase phosphorylation in the cells, human gastric cancer cell line MKN45 having endogenous high expression wild type c-MET (wild-type c-MET) is used. Such high expression of c-MET causes the tyrosine of c-MET receptor kinases constantly self-phosphorylated without ligands. MKN45 cells are inoculated in DMEM culture solution containing 10% FCS in a multi-well cell culture dish. The compound of the invention is added to the cells after serum overnight starvation, then the cells are cultured in a medium without serum. […]"}, "[14]": {"molecular_target": "T14, VEGFR2 (Homo sapiens, UniProt P35968)", "T14 sequence (P35968 20-1356)": "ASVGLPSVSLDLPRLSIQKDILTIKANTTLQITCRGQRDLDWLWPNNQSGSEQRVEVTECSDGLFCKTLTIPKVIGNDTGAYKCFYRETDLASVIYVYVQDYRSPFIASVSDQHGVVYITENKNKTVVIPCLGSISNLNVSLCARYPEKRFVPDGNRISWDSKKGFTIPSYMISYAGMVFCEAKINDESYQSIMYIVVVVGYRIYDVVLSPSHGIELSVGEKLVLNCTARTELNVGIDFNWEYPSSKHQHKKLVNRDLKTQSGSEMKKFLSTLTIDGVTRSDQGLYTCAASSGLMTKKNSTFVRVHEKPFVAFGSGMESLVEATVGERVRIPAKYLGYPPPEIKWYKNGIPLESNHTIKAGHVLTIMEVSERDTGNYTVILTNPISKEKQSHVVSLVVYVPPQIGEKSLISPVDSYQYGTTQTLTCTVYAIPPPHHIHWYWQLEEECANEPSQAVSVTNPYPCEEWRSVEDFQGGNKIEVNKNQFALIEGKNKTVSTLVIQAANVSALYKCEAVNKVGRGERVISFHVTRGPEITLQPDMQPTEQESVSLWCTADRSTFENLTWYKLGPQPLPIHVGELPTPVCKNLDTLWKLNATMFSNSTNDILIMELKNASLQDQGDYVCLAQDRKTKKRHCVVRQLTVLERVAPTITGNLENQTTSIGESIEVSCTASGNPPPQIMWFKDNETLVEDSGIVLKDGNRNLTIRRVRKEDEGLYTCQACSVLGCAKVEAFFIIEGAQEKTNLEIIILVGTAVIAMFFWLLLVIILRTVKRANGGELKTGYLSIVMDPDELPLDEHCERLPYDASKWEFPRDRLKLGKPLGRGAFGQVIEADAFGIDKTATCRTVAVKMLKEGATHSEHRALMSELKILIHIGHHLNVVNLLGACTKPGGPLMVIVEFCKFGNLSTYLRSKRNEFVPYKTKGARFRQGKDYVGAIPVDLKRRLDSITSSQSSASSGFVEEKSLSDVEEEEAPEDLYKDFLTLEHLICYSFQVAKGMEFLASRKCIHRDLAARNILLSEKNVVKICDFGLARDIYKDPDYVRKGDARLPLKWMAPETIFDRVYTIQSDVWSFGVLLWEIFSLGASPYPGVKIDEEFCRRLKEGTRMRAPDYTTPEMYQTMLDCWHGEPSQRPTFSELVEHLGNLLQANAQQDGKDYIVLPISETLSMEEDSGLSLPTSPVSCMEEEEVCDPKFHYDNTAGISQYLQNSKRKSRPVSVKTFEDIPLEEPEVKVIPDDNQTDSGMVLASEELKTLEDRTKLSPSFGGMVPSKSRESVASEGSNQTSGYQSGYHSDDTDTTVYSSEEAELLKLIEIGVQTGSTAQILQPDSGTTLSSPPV", "assay": "KinomeScan kinase panel", "type": "binding", "set-up": "purchased DiscoveRx Corporation (KinomeScan service)", "procedure": "as §3, §4"}, "[15]": {"molecular_target": "T14, VEGFR2", "assay": "VEGFR2 kinase phosphorylation in HUE cells (sandwich ELISA)", "type": "cell-based", "set-up": "cell line HUE having endogenous high expression vascular endothelial growth factor-R2 (VEGFR2); endogenous in cells; host or cells: HUE", "conditions": "VEGF-A 100 ng/mL 3 min, mean value of two testing results, read-out: IC50 values in the cell, VEGFR2", "procedure": "as §1, §2\nVEGFR2 kinase: in the test experiment of VEGFR2 kinase phosphorylation in the cells, a spontaneous immortalized human umbilical vein endothelial cell line HUE having endogenous high expression vascular endothelial growth factor-R2 (VEGFR2) is used. When these cells are simulated with human vascular endothelial growth factor-A (VEGF-A), it causes the tyrosine of VEGFR2 receptor kinases self-phosphorylated. HUE cells are inoculated in endothelial cell growth medium (ECGM) containing 10% FCS in a multi-well cell culture dish. […]"}},
  "data": [
    {"smiles": "CCOP(=O)(CN1CCC(COc2cc3nccc(Oc4ccc(NC(=O)C5(C(=O)Nc6ccc(F)cc6)CC5)cc4F)c3cc2OC)CC1)OCC", "note": "[Example 10, N1-[4-[[7-[[1-(diethoxyphosphorylmethyl)-4-piperidinyl]methoxyl]-6-methoxyl-4-quinolyl]oxyl]-3-fluorophenyl]-N1′-(4-fluorophenyl)cyclopropane-1,1-dicarboxamide]", "values": [
      {"measurement": "% Ctrl@1000 nM", "setting": "[1]", "value": 84, "unit": "% Ctrl"},
      {"measurement": "IC50", "setting": "[2]", "value": 13, "unit": "nM"},
      {"measurement": "% Ctrl@1000 nM", "setting": "[3]", "value": 100, "unit": "% Ctrl"},
      {"measurement": "% Ctrl@1000 nM", "setting": "[4]", "value": 100, "unit": "% Ctrl"},
      {"measurement": "% Ctrl@1000 nM", "setting": "[5]", "value": 0.6, "unit": "% Ctrl"},
      {"measurement": "% Ctrl@1000 nM", "setting": "[6]", "value": 100, "unit": "% Ctrl"},
      {"measurement": "% Ctrl@1000 nM", "setting": "[7]", "value": 14, "unit": "% Ctrl"},
      {"measurement": "% Ctrl@1000 nM", "setting": "[8]", "value": 35, "unit": "% Ctrl"},
      {"measurement": "% Ctrl@1000 nM", "setting": "[9]", "value": 1.9, "unit": "% Ctrl"},
      {"measurement": "% Ctrl@1000 nM", "setting": "[10]", "value": 100, "unit": "% Ctrl"},
      {"measurement": "% Ctrl@1000 nM", "setting": "[11]", "value": 0, "unit": "% Ctrl"},
      {"measurement": "% Ctrl@1000 nM", "setting": "[12]", "value": 67, "unit": "% Ctrl"},
      {"measurement": "IC50", "setting": "[13]", "value": 17, "unit": "nM"},
      {"measurement": "% Ctrl@1000 nM", "setting": "[14]", "value": 3.9, "unit": "% Ctrl"},
      {"measurement": "IC50", "setting": "[15]", "value": 0.43, "unit": "nM"}
    ]}
  ]
}
